Experimental data taken from patent US12508246B2, “Uses of complex of angiotensin II receptor antagonist metabolite and NEP inhibitor in treating heart failure” (SHENZHEN SALUBRIS PHARMACEUTICALS CO. LTD, priority 2019, dated 2025).
“And” between values parts separate entries of the source, which are not always exact repeats. Equal entries are not always repeated. Marks after values point to notes of the source that are not given here.

Tests used:
[1] = system: dogs with heart failure (reduced ejection fraction); assay: Pharmacodynamic study in the canine chronic heart failure model-reduced ejection fraction (LAD ligation, echocardiography); assay type: in vivo; details: HFrEF dog model; 100 mpk (mix: EXP3174 52 mpk + sacubitril 48 mpk) p.o. qd, from 3 d after modeling for 6 weeks; Mean ± SD; model 35.82, sham 66.20
Protocol: 4.1 Methods: After the animals arrived at the facility, they were on adaptive feeding, and randomized after echocardiography and ECG, and then the experiment was started. On the day of operation, animals were anesthetized by intramuscular injection of Zoletil (5 mg/kg). The trachea of the anesthetized dogs were connected to the ventilator, and then they were fixed in a supine position, their chest was opened between the third and fourth ribs, the left anterior descending coronary artery was ligated to close the thoracic cavity, and then the skin was sutured. After the animals recovered for 3 days after operation, they were given therapeutic drugs by gavage, once a day for […] consecutive weeks. During the experiment, animal's living conditions were observed every day, and their abnormal conditions were recorded. After 42 days of dosing, echocardiography was performed.
(§1) 4.2 Modeling: On the day before operation, the animals were fasted overnight. On the day of operation, the animals were intramuscularly injected with Zoletil (dose: 5 mg/kg) to induce anesthesia, and also were intramuscularly administered with atropine sulfate injection (dose: 0.5 mg/dog). After the animals were anesthetized, their hair on the left chest was shaved clean. […]

[2] = system: dogs with heart failure (preserved ejection fraction); assay: Pharmacodynamic study in the canine chronic heart failure model-preserved ejection fraction (LAD ligation, echocardiography); assay type: in vivo; details: HFpEF dog model; 100 mpk (mix: EXP3174 52 mpk + sacubitril 48 mpk) p.o. qd, from 3 d after modeling for 2 weeks; Mean ± SD; model 51.80, sham 68.15
Protocol: 5.1 Methods: After the animals arrived at the facility, they were on adaptive feeding, and randomized after echocardiography and ECG, and then the experiment was started. On the day of operation, animals were anesthetized by intramuscular injection of Zoletil (5 mg/kg). The tracheae of the anesthetized dogs were connected to the ventilator, and then they were fixed in a supine position; their chests were opened between the third and fourth ribs, the left anterior descending coronary artery was ligated to close the thoracic cavity, and then the skin was sutured. After the animals recovered for 3 days after operation, they were given therapeutic drugs by gavage, once a day for two consecutive weeks. During the experiment, the animals' living conditions were observed every day, and their abnormal conditions were recorded. After 14 days of dosing, echocardiography was performed.
as §1, with “5.2” for “4.2”

Q: Which results are given for “Valsartan-Sacubitril sodium salt complex [LCZ696]”?
A: endpoint left ventricular ejection fraction LVEF (%) [1]: 46.45% and 46.45 ± 3.39 %; endpoint left ventricular ejection fraction LVEF (%) [2]: 57.98% and 57.98 ± 2.64 %

Q: Which “endpoint left ventricular ejection fraction LVEF (%)” value [1] does the source give for “(EXP3174·AHU377)^3−·1.5 Ca^2+·2H2O [Complex of the invention]” here?
A: 51.87 ± 1.01***^@$ %

Q: What about the “endpoint left ventricular ejection fraction LVEF (%)” value [2] of the same substance?
A: 58.04 ± 1.29***^@ %
